Assay results as given in PubChem BioAssay AID1508591.

Settings: rat; liver microsomes; pH 7.4; 15.0 min; 1.0 µM

SMILES	half-life
CCN1C(=O)c2ccccc2[S@](=O)c2ccc(C(=O)N[C@H](C)c3ccc4ccccc4c3)cc21	5.2 min
CNc1oc(-c2cccc3ccccc23)nc1C(=O)Nc1cccc(C#N)c1	17 min
CC(=O)c1c(C)[nH]c(C(=O)Nc2cccc(S(=O)(=O)Nc3ccc(Br)c(F)c3)c2)c1C	17 min
S=C(NCCCc1cnc[nH]1)NCCCN(Cc1ccc(Cl)c(Cl)c1)c1ccc(Br)cn1	> 30 min
COc1cc2cc(CN3CCC(N(C)C)C3)c(-c3cccc(Cl)c3)nc2cc1OC (stereo not drawn)	23.1 min
Cc1ccc(S(=O)(=O)Nc2ccccc2C(=O)Nc2nc(-c3ccccc3)c(C)s2)cc1	6.3 min
Cc1ccc(S(=O)(=O)Nc2ccccc2C(=O)Nc2ncc(-c3ccccc3)o2)cc1	3.5 min
Cc1ccc(S(=O)(=O)Nc2ccccc2C(=O)Nc2nc(-c3ccccc3)cs2)cc1	2.4 min
CC(=O)c1c(C)[nH]c(C(=O)Nc2cccc(S(=O)(=O)N3CCCCC3)c2)c1C	1.7 min
COC(=O)c1ccc2c(c1)nc1n2[C@@H](CNC(C)=O)COC1	> 30 min
O=S(=O)(Nc1cccc(C(F)(F)F)c1)c1ccc(NS(=O)(=O)c2ccc3c(c2)OCCO3)cc1	20 min
Cc1nc(Sc2nnnn2C)c2c(-c3ccccc3)csc2n1	1.6 min
O=C1CCCC2=C1C1(CCCC1)N=C(Nc1nc3cc(Cl)ccc3o1)N2	2.6 min
CC(NCc1ccc2c(c1)nc(NC(=O)c1ccc(-c3cn[nH]c3)s1)n2CC(C)(C)O)C(C)(C)C (stereo not drawn)	18.8 min
c1ccc(Nc2cc3c(cn2)CN(Cc2ccc4[nH]ccc4c2)CCN3)cc1	2.09 min
Cn1c(CN2CCCCC2)nc2cc(NC(=O)c3cccc(Br)c3)ccc21	> 30 min
COc1ccccc1-c1nnc2sc(-c3ccc(N(C)C)cc3)nn12	2.24 min
O=C(N/N=C/c1ccc(O)c(O)c1)c1cc2ccccc2cc1O	15.1 min
Cn1c(CN2CCCC2)nc2cc(NC(=O)COc3ccc(Cl)cc3)ccc21	8.4 min
NC(=O)C1CCN(c2nc(-c3cccc(F)c3)cs2)CC1	1.95 min
O=C(Nc1ncnc2sc3c(c12)CCCCC3)c1ccco1	2.3 min
CCc1cccc(NC(=O)c2cc(-c3ccc[nH]3)n[nH]2)c1	6.57 min
Cc1ccc(S(=O)(=O)Nc2ccc(C(=O)Nc3nc(-c4ccccc4)cs3)c(Cl)c2)cc1	23 min
CCn1c(-c2nonc2N)nc2cnc(Oc3cccc(NC(=O)c4ccc(OCCN5CCOCC5)cc4)c3)cc21	6.56 min
CCOC(=O)N1CCN(Cc2nc3cc(NC(=O)c4ccc(OC)cc4)ccc3n2C(C)C)CC1	26 min

SMILES	half-life
c1cn2cc(-c3ccc4cn[nH]c4c3)nc(Nc3ccc(N4CCOCC4)cc3)c2n1	24.9 min
Cc1ccc(-c2csc(NC(=O)c3ccncc3NS(=O)(=O)c3ccc(C)cc3)n2)cc1	7.3 min
COc1ccc(C(=O)N2CCC3(CC2)CN(c2cccc(-c4ccccc4)c2)C3)cc1	22 min
NC(=O)c1ccc(-c2ncc3cnc(-c4cccc(F)c4)cn23)cc1	20.7 min
CC(C)Oc1ccc(CNC(=O)C2CCN(C(=O)N3CCOc4ccc(Cl)cc43)CC2)cc1	9.17 min
CC(=O)c1ccc(-c2csc(N3CCC(C(N)=O)CC3)n2)cc1	4.4 min
Cn1ncnc1[C@H]1c2n[nH]c(=O)c3cc(F)cc(c23)N[C@@H]1c1ccc(F)cc1	> 30 min
COc1ccccc1NC(=O)C1=C(C)Nc2c(C(=O)Nc3cccc(C)c3)cnn2C1c1ccccc1Cl (stereo not drawn)	2.98 min
CC1=C[C@@H](CN2C(=O)C(C)=C(C)C2=O)[C@H](C(C)C)C[C@H]1Cc1nc2c(C)cccc2[nH]1	1.3 min
OCc1ccc(-c2ccc(-c3ccc(CO)s3)o2)s1	6.18 min
O=C(NC1CCCCC1)N1Cc2[nH]cnc2C[C@H]1c1nc(-c2cccc([N+](=O)[O-])c2)no1	10.3 min
Oc1ccc(CNc2ccc(C(F)(F)F)cc2F)c2cccnc12	5.53 min
COc1ccc(CCNC(=O)Cn2c(=O)c3cccn3c3ccc(F)cc32)cc1OC	1.81 min
FC(F)(F)c1cccc(N2CCN(C(=S)Nc3ccccn3)CC2)c1	15.5 min
Cc1ccc(OCCn2c(CCNC(=O)N3CCCCC3)nc3ccccc32)cc1	1.7 min
CN1CCN(C2=Nc3ccccc3Sc3ccc(Cl)cc32)CC1	1.11 min
Clc1ccccc1CSc1nc2ncc(Br)cc2[nH]1	6.5 min
O=c1c(O)c(-c2ccc(O)cc2)oc2cc(O)cc(O)c12	6.13 min
Cc1ccc(NC(=O)c2c(N3CCCC3=O)c3cc(C)ccc3n2C)c(C)c1	1.31 min
COc1ccccc1C(=O)Nc1ccccc1C(=O)Nc1cccc(S(=O)(=O)C(F)(F)F)c1	> 30 min
Cc1ccc(S(=O)(=O)Nc2cnccc2C(=O)Nc2nc(-c3ccco3)cs2)cc1	1.9 min
CN1C(=O)C(=O)N2C(=C[C@]3(c4c[nH]c5ccccc45)c4ccccc4N[C@H]23)C1=O	4.83 min
Fc1ccccc1-c1ccc(Nc2nc(-c3ccncc3)nc3ccccc23)cc1F	> 30 min
Cc1ccc(S(=O)(=O)Nc2cc(Cl)cc(C(=O)Nc3nc(-c4ccccc4)cs3)c2)cc1	22 min
CO[C@@H]1/C=C\O[C@@]2(C)Oc3c(C)c(O)c4c(c3C2=O)C(=N[C@H]2CC[C@H](O)O[C@@H]2C)C=C(NC(=O)/C(C)=C\C(=O)[C@@H]2C[C@@H]2[C@@H](O)[C@H](C)[C@@H](O)[C@H](C)[C@H](OC(C)=O)[C@@H]1C)C4=O	9.93 min

SMILES	half-life
O=C(Nc1ccccc1)C1CC(=O)N(c2n[nH]c3cc(Br)ccc23)C1 (stereo not drawn)	> 30 min
CN1CCN(Cc2ccc(-c3ccc(C(C)(C)C#N)cc3)nc2)CC1	24.6 min
COc1cccc2nc(-c3cccs3)nc(NN3C(=O)C=C(C)C3=O)c12	4.26 min
CCOc1ccc(NC(=O)c2cccc(-n3cccc3)c2)cc1S(=O)(=O)N1CCOCC1	3.16 min
Cc1cnc(N2CCC(C(N)=O)CC2)nc1-c1cccc(N(C)C)c1	8.45 min
O=c1[nH]c(N2CCOCC2)nc2c1CCN(Cc1ccc(Cl)cc1F)CC2	> 30 min
Cc1cccc(C)c1Nc1c(-c2cccs2)nc2ncccn12	3.72 min
c1ccc(-c2ccc(CNc3nc(-c4ccccn4)nnc3-c3ccccc3)cc2)cc1	7.73 min
CCc1ccc(S(=O)(=O)Nc2cnccc2C(=O)Nc2nc(-c3ccccc3)cs2)cc1	4.4 min
CC[C@H]1C=CC=CC[C@@H](C)[C@H](O)[C@@](C)(O)C(=O)[C@@H](C)[C@H](O)[C@@H](C)C(=O)[C@@H](C)[C@H](O)[C@@H](C)C=CC(=O)O[C@@H]2[C@@H](C)[C@H](CC1)O[C@]1(CC[C@H](C)[C@H](C[C@@H](C)O)O1)[C@H]2C	> 30 min
Cc1ccc2oc3c(c(=O)c2c1)C(c1cccc(O)c1)N(CCCN1CCOCC1)C3=O (stereo not drawn)	9.55 min
CCN(CC)C(=O)N1c2ccccc2C=Cc2ccccc21	1.07 min
Cc1cc(C)nc(NS(=O)(=O)c2ccc(NC(=S)NC(=O)COc3ccc(Br)cc3Cl)cc2)n1	> 30 min
Cc1ccc(NC2=C(c3ccc(C(F)(F)F)cc3)C(=O)c3ccccc32)cc1F	8.96 min
COc1cc(/C=C(\C#N)c2nc3ccccc3[nH]2)ccc1OCc1ccc(F)cc1	7.99 min
Fc1ccc(CN2CCNc3cc(Nc4ccccc4)ncc3C2)cc1F	2.28 min
CCOc1ccccc1N1CC(c2nc3ccccc3n2CCOc2ccc(C(C)(C)C)cc2)CC1=O (stereo not drawn)	2.34 min
COc1ccc2c(c1)CCc1c-2n[nH]c1C(=O)N1CCc2c(nc3cc(-c4ccccc4)[nH]n3c2=O)C1	27.3 min
O=C(Nc1ncc(Cc2ccc(C(F)(F)F)cc2)s1)c1ccco1	> 30 min
COCCNC(=O)c1ccc(Cn2c(=S)[nH]c3cc4c(cc3c2=O)OCO4)cc1	> 30 min
O=C(c1ccccc1)N1CCC(c2nn(-c3ccc(F)cc3)c(=O)[nH]2)CC1	> 30 min
CC(=O)Nc1ccc(N[S+](=O)([O-])c2cccc(NC(=O)c3[nH]c(C)c(C(C)=O)c3C)c2)cc1	> 30 min
N#Cc1nc(-c2cccc3ccccc23)oc1Nc1ccccc1	> 30 min
COC(=O)CNC(=O)c1nc(-c2ccc(F)cc2)c2ccccn12	0.91 min
OCCNc1ncnc2c1ncn2[C@@H]1O[C@@H](CO)[C@H](O)[C@@H]1O	> 30 min

SMILES	half-life
COc1cccc(NC(=O)c2cc(-c3ccc(C)c(C)c3)nc3ccccc23)c1	12 min
COc1ccc(-n2nc(C3CCCN(C(=O)c4cccc(OC)c4)C3)[nH]c2=O)cc1 (stereo not drawn)	23.4 min
FC(F)(F)c1ccccc1-c1nc(NCc2cccc(Cl)c2)c2ccccc2n1	2.97 min
c1ccc2[nH]c(Nc3nc(-c4ccncc4)nc4ccccc34)nc2c1	13 min
O=C(c1ccc2c(c1)ncn2-c1ccccc1)N1CCCCC1	16 min
COCCNCc1ccc(-c2cc3nccc(Oc4ccc(NC(=S)NC(=O)Cc5ccc(F)cc5)cc4F)c3s2)nc1	10.3 min
Fc1cc(Nc2nc(-c3ccncc3)nc3ccccc23)ccc1-c1ccnc(C(F)(F)F)c1	8.6 min
O=C(Nc1ccc2oc(-c3cccnc3)nc2c1)c1ccc(-c2ccccc2)o1	14.4 min
C[C@H]1CCC[C@H](O)CCC/C=C/c2cc(O)cc(O)c2C(=O)O1	15.2 min
NC(=O)C1CCN(c2nc(-c3ccc4c(c3)OCCO4)cs2)CC1	3.09 min
Cc1ccnc(NC(=S)N2CCN(c3cccc(Cl)c3Cl)CC2)c1	2.4 min
Cc1ccc(S(=O)(=O)Nc2ccccc2C(=O)Nc2ccc(-c3ccccc3)nc2)cc1	2.7 min
COC(=O)c1cc2occc2n1Cc1nc(-c2ccc(C)cc2)oc1C	3.86 min
Cc1ccc(/C=C/c2nc3ccccc3n2S(=O)(=O)c2ccc(Br)cc2)cc1	28.6 min
COc1ccc(-c2nc(CS(=O)CC(=O)N3CCC4(CC3)OCCO4)c(C)o2)cc1 (stereo not drawn)	> 30 min
Fc1cc(Nc2nc(-c3ccncc3)nc3ccccc23)ccc1-c1cccc(OC(F)F)c1	> 30 min
CCOc1ccc(CCNC(=O)c2cc3sccc3n2Cc2ccccc2)cc1OCC	1.7 min
NC(=O)C1CCN(c2nc(-c3cccc(Br)c3)cs2)CC1	1.77 min
CCS(=O)(=O)c1nc(-c2ccc(Cl)cc2)cc(C(F)(F)F)n1	5.7 min
Cc1nn(CCc2nc(-c3ccc4ccccc4c3)cs2)c2[nH]c(=O)cc(C(F)(F)F)c12	6.4 min
CC(=O)c1ccc(N2CCN(S(=O)(=O)c3cc4c(cc3Cl)NC(=O)C4)CC2)cc1	28 min
CN[C@@H]1C[C@@H](c2ccc(Cl)c(Cl)c2)c2ccccc21	17.2 min
Cc1ccc2[nH]c(-c3ccccc3)cc(=O)c2c1	15.9 min
